Measured values taken from ChEMBL document CHEMBL1255419, “Pharmacokinetic-pharmacodynamic assessment of faropenem in a lethal murine Bacillus anthracis inhalation postexposure prophylaxis model” (Antimicrob Agents Chemother, 2010).
Values after ≈ are worked out from the molar mass of the structure shown. Active and inactive are the calls of the source. The calls are words filed in the database; no cut-off is given here.

Key:
[1] = system: Bacillus anthracis; test: microbe, parasite or virus in culture; type: functional
[2] = Plasma protein binding in CD1 mouse at 5 ug/ml by ultrafiltration technique; type: ADME, cell-free; conditions: read-out: PPB (converted)
[3] = Plasma protein binding in CD1 mouse at 1000 ug/ml by ultrafiltration technique; type: ADME, cell-free; conditions: read-out: PPB (converted)
[4] = system: Bacillus anthracis; test: Antibacterial activity against Bacillus anthracis Ames infected in BALB/c mouse assessed as decrease in bacterial load in lungs at 20 mg/kg, ip administered 24 hrs postinfection at 4 hrs interval for 14 days measured on day 27; type: functional, organism-based; parameters: dose 20 mg/kg
[5] = system: Bacillus anthracis; test: Antibacterial activity against Bacillus anthracis Ames infected in BALB/c mouse assessed as survival rate at 10 mg/kg, ip administered 24 hrs postinfection at 4 hrs interval for 14 days measured on day 27; type: functional; conditions: route intraperitoneal
[6] = system: Bacillus anthracis; test: Antibacterial activity against Bacillus anthracis Ames infected in BALB/c mouse assessed as survival rate at 20 mg/kg, ip administered 24 hrs postinfection at 4 hrs interval for 14 days measured on day 27; type: functional; conditions: route intraperitoneal
[7] = system: Bacillus anthracis; test: Antibacterial activity against Bacillus anthracis Ames infected in BALB/c mouse assessed as survival rate at 40 mg/kg, ip administered 24 hrs postinfection at 4 hrs interval for 14 days measured on day 27; type: functional; conditions: route intraperitoneal
[8] = system: Bacillus anthracis; test: Antibacterial activity against Bacillus anthracis Ames infected in BALB/c mouse assessed as survival rate at 80 mg/kg, ip administered 24 hrs postinfection at 4 hrs interval for 14 days measured on day 27; type: functional; conditions: route intraperitoneal
[9] = system: Bacillus anthracis; test: Antibacterial activity against Bacillus anthracis Ames infected in BALB/c mouse assessed as survival rate at 10 mg/kg, ip administered 24 hrs postinfection at 6 hrs interval for 14 days measured on day 27; type: functional; conditions: route intraperitoneal
[10] = system: Bacillus anthracis; test: Antibacterial activity against Bacillus anthracis Ames infected in BALB/c mouse assessed as survival rate at 20 mg/kg, ip administered 24 hrs postinfection at 6 hrs interval for 14 days measured on day 27; type: functional; conditions: route intraperitoneal
[11] = system: Bacillus anthracis; test: Antibacterial activity against Bacillus anthracis Ames infected in BALB/c mouse assessed as survival rate at 40 mg/kg, ip administered 24 hrs postinfection at 6 hrs interval for 14 days measured on day 27; type: functional; conditions: route intraperitoneal
[12] = system: Bacillus anthracis; test: Antibacterial activity against Bacillus anthracis Ames infected in BALB/c mouse assessed as survival rate at 80 mg/kg, ip administered 24 hrs postinfection at 6 hrs interval for 14 days measured on day 27; type: functional; conditions: route intraperitoneal
[13] = system: Bacillus anthracis; test: Antibacterial activity against Bacillus anthracis Ames infected in BALB/c mouse assessed as survival rate at 10 mg/kg, ip administered 24 hrs postinfection at 12 hrs interval for 14 days measured on day 27; type: functional; conditions: route intraperitoneal
[14] = system: Bacillus anthracis; test: Antibacterial activity against Bacillus anthracis Ames infected in BALB/c mouse assessed as survival rate at 20 mg/kg, ip administered 24 hrs postinfection at 12 hrs interval for 14 days measured on day 27; type: functional; conditions: route intraperitoneal
[15] = system: Bacillus anthracis; test: Antibacterial activity against Bacillus anthracis Ames infected in BALB/c mouse assessed as survival rate at 40 mg/kg, ip administered 24 hrs postinfection at 12 hrs interval for 14 days measured on day 27; type: functional; conditions: route intraperitoneal
[16] = system: Bacillus anthracis; test: Antibacterial activity against Bacillus anthracis Ames infected in BALB/c mouse assessed as survival rate at 80 mg/kg, ip administered 24 hrs postinfection at 12 hrs interval for 14 days measured on day 27; type: functional; conditions: route intraperitoneal
[17] = f%TMIC in ip dosed Bacillus anthracis Ames infected BALB/c mouse model at ED50 administered 24 hrs postinfection at 4 hrs interval for 14 days measured on day 27; type: functional
[18] = f%TMIC in ip dosed Bacillus anthracis Ames infected BALB/c mouse model at ED90 administered 24 hrs postinfection at 4 hrs interval for 14 days measured on day 27; type: functional
[19] = f%TMIC in ip dosed Bacillus anthracis Ames infected BALB/c mouse model at ED99 administered 24 hrs postinfection at 4 hrs interval for 14 days measured on day 27; type: functional
[20] = system: Streptococcus pneumoniae; test: Antibacterial activity against Streptococcus pneumoniae clinical isolates; type: functional
[21] = system: Streptococcus pneumoniae; test: f%TMIC in Streptococcus pneumoniae infected pharmacokinetic-pharmacodynamic model; type: functional
[22] = f%TMIC in Bacillus anthracis Ames infected human model at 600 […], BID; type: functional
[23] = system: Bacillus anthracis; test: f%TMIC in Bacillus anthracis Ames infected pharmacokinetic-pharmacodynamic model at 0.12 ug/ml; type: functional
[24] = system: Bacillus anthracis; test: f%TMIC in Bacillus anthracis Ames infected pharmacokinetic-pharmacodynamic model at 0.25 ug/ml; type: functional
[25] = system: Bacillus anthracis; test: f%TMIC in Bacillus anthracis Ames infected pharmacokinetic-pharmacodynamic model at 0.5 ug/ml; type: functional
[26] = system: Bacillus anthracis; test: microbe, parasite or virus in culture; type: functional; remark: listed apart in the source
[27] = system: Bacillus anthracis; test: microbe, parasite or virus in culture; type: functional; remark: listed apart in the source
[28] = system: Bacillus anthracis; test: Antibacterial activity against beta-lactamase Bla1 and Bla2-producing Bacillus anthracis Sterne by broth microdilution method; type: functional
[29] = system: Bacillus anthracis; test: microbe, parasite or virus in culture; type: functional; remark: listed apart in the source
[30] = system: Bacillus anthracis; test: microbe, parasite or virus in culture; type: functional; remark: listed apart in the source
[31] = system: Bacillus anthracis; test: microbe, parasite or virus in culture; type: functional; remark: listed apart in the source
[32] = system: Bacillus anthracis; test: microbe, parasite or virus in culture; type: functional; remark: listed apart in the source
[33] = system: Bacillus anthracis; test: microbe, parasite or virus in culture; type: functional; remark: listed apart in the source
[34] = system: Bacillus anthracis; test: microbe, parasite or virus in culture; type: functional; remark: listed apart in the source
[35] = system: Bacillus anthracis; test: microbe, parasite or virus in culture; type: functional; remark: listed apart in the source
[36] = system: Bacillus anthracis; test: microbe, parasite or virus in culture; type: functional; remark: listed apart in the source
[37] = system: Bacillus anthracis; test: microbe, parasite or virus in culture; type: functional; remark: listed apart in the source
[38] = system: Bacillus anthracis; test: microbe, parasite or virus in culture; type: functional; remark: listed apart in the source
[39] = system: Bacillus anthracis; test: microbe, parasite or virus in culture; type: functional; remark: listed apart in the source
[40] = system: Bacillus anthracis; test: microbe, parasite or virus in culture; type: functional; remark: listed apart in the source
[41] = system: Bacillus anthracis; test: microbe, parasite or virus in culture; type: functional; remark: listed apart in the source
[42] = system: Bacillus anthracis; test: microbe, parasite or virus in culture; type: functional; remark: listed apart in the source
[43] = system: Bacillus anthracis; test: microbe, parasite or virus in culture; type: functional; remark: listed apart in the source
[44] = system: Bacillus anthracis; test: microbe, parasite or virus in culture; type: functional; remark: listed apart in the source
[45] = system: Bacillus anthracis; test: microbe, parasite or virus in culture; type: functional; remark: listed apart in the source
[46] = system: Bacillus anthracis; test: microbe, parasite or virus in culture; type: functional; remark: listed apart in the source
[47] = system: Bacillus anthracis; test: microbe, parasite or virus in culture; type: functional; remark: listed apart in the source
[48] = system: Bacillus anthracis; test: microbe, parasite or virus in culture; type: functional; remark: listed apart in the source
[49] = system: Bacillus anthracis; test: microbe, parasite or virus in culture; type: functional; remark: listed apart in the source
[50] = system: Bacillus anthracis; test: microbe, parasite or virus in culture; type: functional; remark: listed apart in the source
[51] = system: Bacillus anthracis; test: microbe, parasite or virus in culture; type: functional; remark: listed apart in the source
[52] = system: Bacillus anthracis; test: microbe, parasite or virus in culture; type: functional; remark: listed apart in the source
[53] = system: Bacillus anthracis; test: microbe, parasite or virus in culture; type: functional; remark: listed apart in the source
[54] = species: Homo sapiens; test: Plasma protein binding in human at 5 ug/ml by ultrafiltration technique; conditions: read-out: PPB (converted)
[55] = species: Homo sapiens; test: Plasma protein binding in human at 1000 ug/ml by ultrafiltration technique; conditions: read-out: PPB (converted)

SMILES: Cc1oc(=O)oc1COC(=O)C1=C([C@H]2CCCO2)S[C@@H]2[C@@H]([C@@H](C)O)C(=O)N12 [FAROPENEM MEDOXOMIL]
- MIC [1]: 0.25 µg/mL (≈ 0.629 µM)
- fraction unbound at 5 ug/ml [2]: 0.15
- fraction unbound at 1000 ug/ml [3]: 0.82
- inhibition [4]: Active
- survival at 10 mg/kg [5]: 77.8%
- survival at 20 mg/kg [6]: 80%
- survival at 40 mg/kg [7]: 80%
- survival at 80 mg/kg [8]: 100%
- survival at 10 mg/kg [9]: 30%
- survival at 20 mg/kg [10]: 60%
- survival at 40 mg/kg [11]: 90%
- survival at 80 mg/kg [12]: 90%
- survival at 10 mg/kg [13]: 0%
- survival at 20 mg/kg [14]: 10%
- survival at 40 mg/kg [15]: 20%
- survival at 80 mg/kg [16]: 22.2%
- fT>MIC [17]: 10.6%
- fT>MIC [18]: 13.4%
- fT>MIC [19]: 16.4%
- MIC [20]: 0.008 µg/mL (≈ 0.0201 µM)
- fT>MIC [21]: 13.9%
- fT>MIC [22]: 62%
- fT>MIC [23]: 51%
- fT>MIC [24]: 44%
- fT>MIC [25]: 32%
- MIC [26]: ≤ 0.06 µg/mL
- MIC [27]: 0.25 µg/mL (≈ 0.629 µM)
- MIC [28]: ≤ 0.06 µg/mL
- MIC [29]: > 64 µg/mL
- MIC [30]: ≤ 0.06 µg/mL
- MIC [31]: 0.06 µg/mL (≈ 0.151 µM)
- MIC [32]: 0.12 µg/mL (≈ 0.302 µM)
- MIC [33]: ≤ 0.06 µg/mL
- MIC [34]: 0.25 µg/mL (≈ 0.629 µM)
- MIC [35]: 0.12 µg/mL (≈ 0.302 µM)
- MIC [36]: 0.12 µg/mL (≈ 0.302 µM)
- MIC [37]: 0.12 µg/mL (≈ 0.302 µM)
- MIC [38]: 0.12 µg/mL (≈ 0.302 µM)
- MIC [39]: 0.12 µg/mL (≈ 0.302 µM)
- MIC [40]: 0.12 µg/mL (≈ 0.302 µM)
- MIC [41]: ≤ 0.06 µg/mL
- MIC [42]: 0.12 µg/mL (≈ 0.302 µM)
- MIC [43]: 0.25 µg/mL (≈ 0.629 µM)
- MIC [44]: 1 µg/mL (≈ 2.52 µM)
- MIC [45]: 0.12 µg/mL (≈ 0.302 µM)
- MIC [46]: 0.12 µg/mL (≈ 0.302 µM)
- MIC [47]: 0.12 µg/mL (≈ 0.302 µM)
- MIC [48]: 0.5 µg/mL (≈ 1.26 µM)
- MIC [49]: ≤ 0.06 µg/mL
- MIC [50]: ≤ 0.06 µg/mL
- MIC [51]: ≤ 0.06 µg/mL
- MIC [52]: 0.12 µg/mL (≈ 0.302 µM)
- MIC [53]: ≤ 0.06 µg/mL
- fraction unbound at 5 ug/ml [54]: 0.1
- fraction unbound at 1000 ug/ml [55]: 0.787
